The values below come from patent publication US20240287052A1, “NOVEL OXAZOLE DERIVATIVE AND PHARMACEUTICAL COMPOSITION FOR PREVENTING OR TREATING ALLERGIC DISEASES COMPRISING THE SAME” (AZCURIS CO., LTD., priority 2021, published 2024).

In series [1] the test system is Human liver cancer cell line HepG2 cells. In words: Cellular viability, WST-8 assay, without or with human liver microsomes. The class given is cell-based. As to conditions: for Cellular viability (%) (+) microsome: HepG2, with human liver microsomes; for Cellular viability (%) (−) microsome: HepG2, without human liver microsomes. As to the method:
Human liver cancer cell line HepG2 cells were cultured in a medium (high glucose Dulbecco's Modified Eagle Medium, DMEM, HyClone) supplemented with 10% fetal bovine serum (FBS, HyClone) and 1% antibiotic in a thermostat maintained at 37° C. with 5% CO2.
HepG2 cells, which are adherent cells, were […] or presence of human liver microsomes (Gibco) and NADPH regenerating system.
Cell cultures were exchanged using […] of medium (high glucose Dulbecco's Modified Eagle Medium, DMEM, HyClone) and incubated for 24 hours.
After adding 10 μL of WST-8 (abCam), the absorbance was obtained at 460 nm after 5 seconds of orbital shaking with a microplate reader (Tecan, Spark©) 2 hours later.
The mean of the three values obtained in triplicate was calculated and expressed as % cellular viability compared to vehicle treatment.
(In general: Tetrazolium dyes change colour on reduction, which living cells bring about.)

Series [2] concerns the target T1, IL33 and ST2 binding (Homo sapiens, UniProt O95760).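 Further: plate ELISA with coated Flag-tagged human IL-33 and His-tagged human ST2, bound ST2 detected by anti-His HRP and TMB absorbance at 450 nm, 2 h compound incubation.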
T1 sequence (O95760 112-270 limits assumed): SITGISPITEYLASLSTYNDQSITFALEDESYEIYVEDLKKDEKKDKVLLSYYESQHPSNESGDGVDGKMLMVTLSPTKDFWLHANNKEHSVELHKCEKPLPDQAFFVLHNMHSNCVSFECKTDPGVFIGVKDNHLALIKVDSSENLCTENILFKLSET

The subject of series [3] is IL-6 secretion in the human mast cell line HMC 1.1. In words: IL-6 production inhibition assay (IL-33 stimulated HMC 1.1 cells, IL-6 ELISA). The class given is cell-based. As to conditions: for inhibition at 1 µM: 1 μM compound, read-out: Inhibition of hIL-6 production (%) 1 μM; for inhibition at 10 µM: 10 μM compound, read-out: Inhibition of hIL-6 production (%) 10 μM; for EC50: read-out: Inhibition of hIL-6 production EC50. As for the experimental part:
Human mast cell line HMC 1.1 cells were cultured in medium (Iscove's Modified Dulbecco's Medium, IMDM, HyClone) supplemented with […] fetal bovine serum (FBS, HyClone) and 1% antibiotics and maintained at 37° C. with 5% CO2.
HMC 1.1 cells, which are non-adherent cells, were cultured in 0.5 mL of culture medium containing 200 nM of IL-33 wild type human recombinant protein after centrifugation of cells in culture flasks filled to […] capacity and incubated for 24 hours with […], 10 μM, 25 μM, 30 μM or 50 μM of Example compound.
Medium was harvested by centrifugation (2,000×g, 5 min) and stored at −80° C. until ELISA assay.
Experiments were performed according to the protocol using the Human IL-6 ELISA kit (abCam).
The average of the three values obtained in triplicate was calculated and the amount of IL-6 secretion was measured using a standard curve. The measured IL-6 secretion was converted to 100% based on the vehicle treatment sample value to obtain the vehicle %.

Each structure is given as a SMILES string. Where two headings read alike, the source gives them in different places.

For orientation: inhibition means the change of the read-out against control, counted positive when it falls. As for `CCOC(=O)c1coc(-c2ccc(C(F)(F)F)cc2)n1` [Compound 6, Ethyl 2-(4-(trifluoromethyl)phenyl)oxazole-4-carboxylate], in series [1] (at 45 μM), the “Cellular viability (%) (+) microsome” value is recorded as 99 at % and the “Cellular viability (%) (−) microsome” value was determined as 66 at %. Moreover, the inhibition in series [2] (100 µM) was 110%.

Consider `CCOC(=O)c1nc(-c2ccc(C(F)(F)F)cc2)oc1-c1ccccc1[N+](=O)[O-]` [Compound 32, Ethyl 5-(2-nitrophenyl)-2-(4-(trifluoromethyl)phenyl)oxazole-4-carboxylate], for which, in series [1] (at 25 μM), the “Cellular viability (%) (+) microsome” value turned out to be 95 at % and the “Cellular viability (%) (−) microsome” value is listed as 81 at %. The inhibition in series [2] (30 µM) was found to be 107%. Besides, in series [2] (100 µM), the inhibition came to 108%.

The term EC50 denotes the concentration giving half of the maximal effect. `CCOC(=O)c1nc(-c2ccc(C(F)(F)F)cc2)oc1-c1cccc(C#N)c1` [Compound 55, Ethyl 5-(3-cyanophenyl)-2-(4-(trifluoromethyl)phenyl)oxazole-4-carboxylate]: in series [1] (at 100 μM), the “Cellular viability (%) (+) microsome” value came out at 91 at % and the “Cellular viability (%) (−) microsome” value amounted to 90 at %. In series [2] (30 µM), the inhibition worked out at 115%. The inhibition in series [2] (100 µM) stood at 116%. In addition, in series [3] (24 hours), the inhibition at 1 µM came to 45% and the inhibition at 10 µM came out at 52%. The EC50 in series [3] amounted to 90 nM.

For the molecule `CCOC(=O)c1nc(-c2cc(F)cc(F)c2)oc1-c1ccccc1[N+](=O)[O-]` [Compound 74, Ethyl 2-(3,5-difluorophenyl)-5-(2-nitrophenyl)oxazole-4-carboxylate], in series [1] (at 45 μM), the “Cellular viability (%) (+) microsome” value came out at 96 at % and the “Cellular viability (%) (−) microsome” value is on record as 101 at %.

In the case of `CCOC(=O)c1nc(-c2ccc(C(F)(F)F)cc2)oc1-c1ccccc1N` [Compound 99, Ethyl 5-(2-aminophenyl)-2-(4-(trifluoromethyl)phenyl)oxazole-4-carboxylate], in series [1] (at 25 μM), the “Cellular viability (%) (+) microsome” value turned out to be 96 at % and the “Cellular viability (%) (−) microsome” value is reported as 79 at %.

As to `CN1CCN(CCNC(=O)c2nc(-c3ccc(C(F)(F)F)cc3)oc2-c2ccccc2[N+](=O)[O-])CC1` [Compound 153, N-(2-(4-Methylpiperazin-1-yl)ethyl)-5-(2-nitrophenyl)-2-(4-(trifluoromethyl)phenyl)oxazole-4-carboxamide], the “Cellular viability (%) (+) microsome” value in series [1] (at 50 μM) was determined as 36 at %. Also, the “Cellular viability (%) (−) microsome” value in series [1] (at 50 μM) came to 19 at %. Moreover, the inhibition in series [2] (30 µM) was found to be 92%; in series [2] (100 µM), 95%.

Regarding `O=C(NCCCn1ccnc1)c1nc(-c2ccc(C(F)(F)F)cc2)oc1-c1ccccc1[N+](=O)[O-]` [Compound 158, N-(3-(1H-Imidazol-1-yl)propyl)-5-(2-nitrophenyl)-2-(4-(trifluoromethyl)phenyl)oxazole-4-carboxamide], in series [1] (at 50 μM), the “Cellular viability (%) (+) microsome” value amounted to 17 at % and the “Cellular viability (%) (−) microsome” value came out at 17 at %. Besides, in series [2] (30 µM), the inhibition is 31%. Also, the inhibition in series [2] (100 µM) was determined as 26%.

For `CN(C)CCNC(=O)c1nc(-c2ccc(OC(F)(F)F)cc2)oc1-c1ccccc1` [Compound 203, N-(2-(Dimethylamino)ethyl)-5-phenyl-2-(4-(trifluoromethoxy)phenyl)oxazole-4-carboxamide], the “Cellular viability (%) (+) microsome” value in series [1] (at 50 μM) is 30 at %. Also, the “Cellular viability (%) (−) microsome” value in series [1] (at 50 μM) is listed as 19 at %. Further, the inhibition in series [2] (30 µM) is -9%; in series [2] (100 µM), 14%.

Consider `COc1ccc(-c2nc(C(=O)NCCN(C)C)c(-c3ccc([N+](=O)[O-])cc3)o2)cc1` [Compound 217, N-(2-(Dimethylamino)ethyl)-2-(4-methoxyphenyl)-5-(4-nitrophenyl)oxazole-4-carboxamide], for which the “Cellular viability (%) (+) microsome” value in series [1] (at 100 μM) is recorded as 34 at %. In addition, the “Cellular viability (%) (−) microsome” value in series [1] (at 100 μM) worked out at 19 at %. In addition, the inhibition in series [2] (30 µM) is -38%; in series [2] (100 µM), -51%.

As to `CN(C)CCNC(=O)c1nc(-c2ccc(F)c(F)c2)oc1-c1ccccc1` [Compound 231, 2-(3,4-Difluorophenyl)-N-(2-(dimethylamino)ethyl)-5-phenyloxazole-4-carboxamide], in series [1] (at 50 μM), the “Cellular viability (%) (+) microsome” value is recorded as 29 at % and the “Cellular viability (%) (−) microsome” value is listed as 17 at %. Also, in series [2] (30 µM), the inhibition is -8%. Also, the inhibition in series [2] (100 µM) was found to be 5%.

On to `CN(C)CCN1CCN(C(=O)c2nc(-c3ccc(Cl)cc3)oc2-c2ccccc2[N+](=O)[O-])CC1` [Compound 248, (2-(4-Chlorophenyl)-5-(2-nitrophenyl)oxazol-4-yl)(4-(2-(dimethylamino)ethyl)piperazin-1-yl)methanone], for which, in series [1] (at 50 μM), the “Cellular viability (%) (+) microsome” value turned out to be 31 at % and the “Cellular viability (%) (−) microsome” value is given as 19 at %. Further, the inhibition in series [2] (30 µM) was found to be 33%. Moreover, in series [2] (100 µM), the inhibition turned out to be 63%.

In the case of `CC(=O)NCCNC(=O)c1nc(-c2ccc(C(F)(F)F)cc2)oc1-c1ccccc1[N+](=O)[O-]` [Compound 285, N-(2-acetamidoethyl)-5-(2-nitrophenyl)-2-(4-(trifluoromethyl)phenyl)oxazole-4-carboxamide], in series [1] (at 30 μM), the “Cellular viability (%) (+) microsome” value is recorded as 59 at % and the “Cellular viability (%) (−) microsome” value amounted to 54 at %. In series [2] (30 µM), the inhibition amounted to 73%. Also, the inhibition in series [2] (100 µM) was 72%.

Consider `CCNC(=O)c1nc(-c2ccc(C(F)(F)F)cc2)oc1-c1ccccc1` [Compound 294, N-Ethyl-5-phenyl-2-(4-(trifluoromethyl)phenyl)oxazole-4-carboxamide], for which, in series [1] (at 160 μM), the “Cellular viability (%) (+) microsome” value was 90 at % and the “Cellular viability (%) (−) microsome” value came out at 95 at %. The inhibition in series [2] (30 µM) came to 95%. In addition, the inhibition at 0.1 µM in series [3] (0.1 μM compound, 24 hours, read-out: Inhibition of hIL-6 production (%) 0.1 μM) is 50%. In series [3] (24 hours), the inhibition at 1 µM came to 88% and the inhibition at 10 µM was 94%. In addition, in series [3], the EC50 was 130 nM.

As to `CCCNC(=O)c1nc(-c2ccc(C(F)(F)F)cc2)oc1-c1cccnc1` [Compound 308, N-Propyl-5-(pyridin-3-yl)-2-(4-(trifluoromethyl)phenyl)oxazole-4-carboxamide], in series [1] (at 160 μM), the “Cellular viability (%) (+) microsome” value is given as 29 at % and the “Cellular viability (%) (−) microsome” value amounted to 27 at %. Besides, in series [3] (24 hours), the inhibition at 1 µM worked out at 56% and the inhibition at 10 µM stood at 62%.

Turning to `CCNC(=O)c1nc(-c2ccc(C#N)cc2)oc1-c1ccccc1` [Compound 315, 2-(4-cyanophenyl)-N-ethyl-5-phenyloxazole-4-carboxamide], in series [2] (30 µM), the inhibition is -4%. Besides, in series [3] (24 hours), the inhibition at 1 µM came out at 47% and the inhibition at 10 µM was found to be 61%.

Regarding `CCCNC(=O)c1nc(-c2ccc(SC)cc2)oc1-c1ccccc1` [Compound 317, 2-(4-(Methylthio)phenyl)-5-phenyl-N-propyloxazole-4-carboxamide], in series [1] (at 160 μM), the “Cellular viability (%) (+) microsome” value worked out at 89 at % and the “Cellular viability (%) (−) microsome” value came to 47 at %. For the same molecule, in series [3] (24 hours), the inhibition at 1 µM stood at 44% and the inhibition at 10 µM worked out at 43%.

`CCNC(=O)c1nc(-c2ccc(C(F)(F)F)cc2)oc1-c1cc(O)cc(O)c1` [Compound 322, 5-(3,5-Dihydroxyphenyl)-N-ethyl-2-(4-(trifluoromethyl)phenyl)oxazole-4-carboxamide]: in series [1] (at 160 μM), the “Cellular viability (%) (+) microsome” value stood at 90 at % and the “Cellular viability (%) (−) microsome” value is reported as 63 at %. Also, in series [3] (24 hours), the inhibition at 1 µM turned out to be 86% and the inhibition at 10 µM came to 73%.

As for `CCNC(=O)c1nc(-c2ccc(C(F)(F)F)cc2)oc1-c1cc(O)c(O)c(O)c1` [Compound 323, N-Ethyl-2-(4-(trifluoromethyl)phenyl)-5-(3,4,5-trihydroxyphenyl)oxazole-4-carboxamide], in series [1] (at 160 μM), the “Cellular viability (%) (+) microsome” value was determined as 77 at % and the “Cellular viability (%) (−) microsome” value came out at 63 at %. Besides, in series [3] (24 hours), the inhibition at 1 µM stood at 45% and the inhibition at 10 µM was 84%.
